In PubChem BioAssay AID2060508 (Molecular Pharmacology Branch, DTP, NCI, 2025):

System: 454973-116-R2-J3-PDC spheroids, viability, % test/control
Assay: Anticancer human tumor 454973-116-R2-J3-PDC patient-derived pancreatic carcinoma cell line growth inhibition [GQUAD]
Conditions: curve of first compound; second compound 0.0316 µM; spheroids with HUVEC and MSC
From the text: DNA G-quadruplex Stabilizer Agents in Combinations in Complex Spheroids
A high-throughput screen of multi-cell type tumor spheroids was designed to identify active combinations of DNA G-quadruplex stabilizer agents and targeted small molecules. Complex spheroids include a stromal component modeled by human endothelial cells (HUVEC) and fibroblasts modeled by human mesenchymal stem cells (MSCs). The concentration ranges selected for each drug and investigational agent were based upon clinically achievable concentrations if the clinical Cmax of the agent was known.
Compounds. The drugs and investigational agents: pidnarulex (CX-5461; NSC782164), APTO-253 (NSC789042), BRACO-19 (NSC847499), peposertib (NSC802822), ceralasertib (NSC780249), elimusertib (NSC800525), camonsertib (NSC841442), AZD-1390 (NSC803789), olaparib (NSC753686), talazoparib (NSC767125), ART-558 (NSC835418), sotorasib (NSC818433), MRTX-1133 (NSC836407), SN-38 (NSC673596), topotecan (NSC609699), etoposide (NSC141540), doxorubicin (NSC123127), gemcitabine (NSC613327), 5-fluorouracil (NSC19893), paclitaxel (NSC125973), vemurafenib (NSC761431), panobinostat (NSC761190), R-306465 (JNJ-16241199; NSC773264), adavosertib (NSC754352), TP-3654 (NSC805149), carboplatin (NSC241240), KSQ-4279 (NSC840948), and staurosporine (NSC755774) were obtained from the National Cancer Institute (NCI) Developmental Therapeutics Program Chemical Repository (34). The FDA-approved anticancer drug set is available from the NCI Developmental Therapeutics Program. […] The stock solutions were prepared in dimethyl sulfoxide (DMSO, Sigma-Aldrich, St. Louis, MO, cat. D2650) at 800-fold the tested concentration and stored at -70 degrees C prior to their use. All drugs and investigational agents were tested over a range starting from a high concentration at or near the clinical Cmax and decreasing in half-log increments. If the clinical Cmax for an agent had not been determined, the highest concentration tested was 10 microM.
2.3 Cell Culture. All cells were maintained in an incubator at 37 degrees C and 5% CO2 with 95% humidity. The PDC lines were cultured according to standard operating procedures established by the NCI PDMR. All PDCs were thawed and cultured in Matrigel-coated flasks prepared with a working solution of 1X Ham's F-12 nutrient mix, without supplementation (Invitrogen, cat. 11765054), 100 U/mL penicillin-streptomycin (Invitrogen, cat. 15140122), and 2.5% Matrigel (Corning Inc., cat. 354248) for the first three passages. The 857933-349-R-J2-PDC line was cultured in 6C/Colon 1B media, which includes advanced DMEM/F-12 (Thermo Fisher Scientific, cat. 12634028), 10 mM HEPES (Thermo Fisher Scientific, cat. 15630080), 1X GlutaMAX supplement (Thermo Fisher Scientific, cat. 35050061), 0.1 mg/mL primocin (InvivoGen, cat. ant-pm-2), 10% defined fetal bovine serum, heat inactivated (HyClone Laboratories Inc., cat. SH30070.03HI), 50% L-WRN conditioned media (ATCC, cat. CRL-3276), 1.25 mM N-Acetyl-L-cysteine (Sigma-Aldrich, cat. A9165), 10 mM nicotinamide (Sigma-Aldrich, cat. N0636), 1X B-27 supplement (Thermo Fisher Scientific, cat. 17504044), 1X N-2 supplement (Thermo Fisher Scientific, cat. 17502048), 10 microM Y-27632 dihydrochloride (Tocris Bioscience, cat. 1254), and 50 ng/mL human EGF recombinant protein (Thermo Fisher Scientific, cat. PHG0311). The 485176-168-R4-J1-PDC line was cultured in Panc media, which includes all 6C/Colon 1B media components plus 100 ng/mL human FGF-10 (Thermo Fisher Scientific, cat. 100-26), 500 nM SB-431542 (Selleckchem, cat. S1067), and gastrin (Tocris, cat. 3006).
[…]
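Also: spheroids exposed to compounds for seven days.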

Row | Compound | IC50 [nM]
1 | C#Cc1c(F)ccc2cc(O)cc(-c3ncc4c(N5CC6CCC(C5)N6)nc(OCC56CCCN5CC(F)C6)nc4c3F)c12 (stereo unspecified) + CN(C)c1ccc(Nc2c3ccc(NC(=O)CCN4CCCC4)cc3nc3cc(NC(=O)CCN4CCCC4)ccc23)cc1 | 41.7
2 | CC(C)n1c(=O)n(C)c2cnc3cc(F)c(-c4ccc(OCCCN5CCCCC5)nc4)cc3c21 + CN(C)c1ccc(Nc2c3ccc(NC(=O)CCN4CCCC4)cc3nc3cc(NC(=O)CCN4CCCC4)ccc23)cc1 | > 10000
3 | Nc1ccn(C2OC(CO)C(O)C2(F)F)c(=O)n1 (stereo unspecified) + CN(C)c1ccc(Nc2c3ccc(NC(=O)CCN4CCCC4)cc3nc3cc(NC(=O)CCN4CCCC4)ccc23)cc1 | < 31.6
4 | O=c1[nH]cc(F)c(=O)[nH]1 + CN(C)c1ccc(Nc2c3ccc(NC(=O)CCN4CCCC4)cc3nc3cc(NC(=O)CCN4CCCC4)ccc23)cc1 | 2120

Same assay, conditions: curve of first compound; second compound 0.1 µM; spheroids with HUVEC and MSC

Row | Compound | IC50 [nM]
5 | C#Cc1c(F)ccc2cc(O)cc(-c3ncc4c(N5CC6CCC(C5)N6)nc(OCC56CCCN5CC(F)C6)nc4c3F)c12 (stereo unspecified) + CN(C)c1ccc(Nc2c3ccc(NC(=O)CCN4CCCC4)cc3nc3cc(NC(=O)CCN4CCCC4)ccc23)cc1 | 52.3
6 | CC(C)n1c(=O)n(C)c2cnc3cc(F)c(-c4ccc(OCCCN5CCCCC5)nc4)cc3c21 + CN(C)c1ccc(Nc2c3ccc(NC(=O)CCN4CCCC4)cc3nc3cc(NC(=O)CCN4CCCC4)ccc23)cc1 | > 10000
7 | Nc1ccn(C2OC(CO)C(O)C2(F)F)c(=O)n1 (stereo unspecified) + CN(C)c1ccc(Nc2c3ccc(NC(=O)CCN4CCCC4)cc3nc3cc(NC(=O)CCN4CCCC4)ccc23)cc1 | < 31.6
8 | O=c1[nH]cc(F)c(=O)[nH]1 + CN(C)c1ccc(Nc2c3ccc(NC(=O)CCN4CCCC4)cc3nc3cc(NC(=O)CCN4CCCC4)ccc23)cc1 | 2060

Same assay, conditions: curve of first compound; second compound 0.316 µM; spheroids with HUVEC and MSC

Row | Compound | IC50 [nM]
9 | C#Cc1c(F)ccc2cc(O)cc(-c3ncc4c(N5CC6CCC(C5)N6)nc(OCC56CCCN5CC(F)C6)nc4c3F)c12 (stereo unspecified) + CN(C)c1ccc(Nc2c3ccc(NC(=O)CCN4CCCC4)cc3nc3cc(NC(=O)CCN4CCCC4)ccc23)cc1 | 31.8
10 | CC(C)n1c(=O)n(C)c2cnc3cc(F)c(-c4ccc(OCCCN5CCCCC5)nc4)cc3c21 + CN(C)c1ccc(Nc2c3ccc(NC(=O)CCN4CCCC4)cc3nc3cc(NC(=O)CCN4CCCC4)ccc23)cc1 | > 10000
11 | Nc1ccn(C2OC(CO)C(O)C2(F)F)c(=O)n1 (stereo unspecified) + CN(C)c1ccc(Nc2c3ccc(NC(=O)CCN4CCCC4)cc3nc3cc(NC(=O)CCN4CCCC4)ccc23)cc1 | < 31.6
12 | O=c1[nH]cc(F)c(=O)[nH]1 + CN(C)c1ccc(Nc2c3ccc(NC(=O)CCN4CCCC4)cc3nc3cc(NC(=O)CCN4CCCC4)ccc23)cc1 | 2250

Same assay, conditions: curve of first compound; second compound 1 µM; spheroids with HUVEC and MSC

Row | Compound | IC50 [nM]
13 | C#Cc1c(F)ccc2cc(O)cc(-c3ncc4c(N5CC6CCC(C5)N6)nc(OCC56CCCN5CC(F)C6)nc4c3F)c12 (stereo unspecified) + CN(C)c1ccc(Nc2c3ccc(NC(=O)CCN4CCCC4)cc3nc3cc(NC(=O)CCN4CCCC4)ccc23)cc1 | < 31.6
14 | CC(C)n1c(=O)n(C)c2cnc3cc(F)c(-c4ccc(OCCCN5CCCCC5)nc4)cc3c21 + CN(C)c1ccc(Nc2c3ccc(NC(=O)CCN4CCCC4)cc3nc3cc(NC(=O)CCN4CCCC4)ccc23)cc1 | > 10000
15 | Nc1ccn(C2OC(CO)C(O)C2(F)F)c(=O)n1 (stereo unspecified) + CN(C)c1ccc(Nc2c3ccc(NC(=O)CCN4CCCC4)cc3nc3cc(NC(=O)CCN4CCCC4)ccc23)cc1 | < 31.6
16 | O=c1[nH]cc(F)c(=O)[nH]1 + CN(C)c1ccc(Nc2c3ccc(NC(=O)CCN4CCCC4)cc3nc3cc(NC(=O)CCN4CCCC4)ccc23)cc1 | 1460

Same assay, conditions: curve of first compound; second compound 3.16 µM; spheroids with HUVEC and MSC

Row | Compound | IC50 [nM]
17 | C#Cc1c(F)ccc2cc(O)cc(-c3ncc4c(N5CC6CCC(C5)N6)nc(OCC56CCCN5CC(F)C6)nc4c3F)c12 (stereo unspecified) + CN(C)c1ccc(Nc2c3ccc(NC(=O)CCN4CCCC4)cc3nc3cc(NC(=O)CCN4CCCC4)ccc23)cc1 | 39.7
18 | CC(C)n1c(=O)n(C)c2cnc3cc(F)c(-c4ccc(OCCCN5CCCCC5)nc4)cc3c21 + CN(C)c1ccc(Nc2c3ccc(NC(=O)CCN4CCCC4)cc3nc3cc(NC(=O)CCN4CCCC4)ccc23)cc1 | > 10000
19 | Nc1ccn(C2OC(CO)C(O)C2(F)F)c(=O)n1 (stereo unspecified) + CN(C)c1ccc(Nc2c3ccc(NC(=O)CCN4CCCC4)cc3nc3cc(NC(=O)CCN4CCCC4)ccc23)cc1 | < 31.6
20 | O=c1[nH]cc(F)c(=O)[nH]1 + CN(C)c1ccc(Nc2c3ccc(NC(=O)CCN4CCCC4)cc3nc3cc(NC(=O)CCN4CCCC4)ccc23)cc1 | 1580

Same assay, conditions: curve of first compound; second compound 10 µM; spheroids with HUVEC and MSC

Row | Compound | IC50 [nM]
21 | C#Cc1c(F)ccc2cc(O)cc(-c3ncc4c(N5CC6CCC(C5)N6)nc(OCC56CCCN5CC(F)C6)nc4c3F)c12 (stereo unspecified) + CN(C)c1ccc(Nc2c3ccc(NC(=O)CCN4CCCC4)cc3nc3cc(NC(=O)CCN4CCCC4)ccc23)cc1 | < 31.6
